# Data from PMC9362525 (Diabetologia, 2022).
# Like-named read-outs stand apart in the source and are kept apart here.
# Assays:
# [1] = system: men with T1DM and healthy men; type: in vivo, human
# [2] = system: human subcutaneous primary preadipocytes; type: cell-based; conditions: for reduction of basal and insulin-stimulated glucose uptake: dose-dependent, exposure during differentiation
# [3] = system: patients with type 2 diabetes; type: in vivo, human; conditions: Ipr 50 mg or Met 1000 mg, 24 weeks, n=15 per group
# [4] = system: adult participants, liver steatosis by VCTE; conditions: multivariable adjusted
# patients with T2D = type: in vivo, human; conditions: for change in LVEF with acipimox: resting
# human delta cells = type: cell-based
# [5] = system: β-cells from Ins2GFP knock-in mice; type: cell-based, mouse
# T2DM and NGT subjects = conditions: for EGP after drug: 10 mg single dose, 4 hours; for increase in renal glucose production (RGP): non-significant
# [6] = system: individuals with prediabetes; conditions: 2 weeks
# [7] = system: skeletal muscle of type 2 diabetes patients; conditions: 5 weeks
# patients with T2DM = type: in vivo, human; conditions: all
# [8] = FAERS 2013 Q1-2020 Q4
# participants with NAFLD = type: in vivo, human
# human β-cells = type: cell-based
# [9] = system: people with type 2 diabetes; type: in vivo, human; conditions: for achieved HbA1c: 16 weeks, pioglitazone 30mg, sitagliptin 100mg, canagliflozin 100mg
# db/db mice retinas = type: in vivo, mouse
# [10] = system: wounds of streptozotocin-diabetic C57BL/6 mice; type: in vivo, mouse
# C57BL/6J mice = type: in vivo, mouse
# HFD/STZ C57Bl/6 mice = type: in vivo, mouse
# [11] = system: βV59M diabetic mouse islets; type: cell-based; conditions: diabetic islets + 10μM, 48 hours; n=7-8
# [12] = system: youth with type 2 diabetes; type: in vivo, human
# [13] = system: patients with obesity and T2D; type: in vivo, human
# EndoC-βH1 cells = type: cell-based, human; conditions: 100 nM
# [14] = 10 mg once daily, LS mean (95% CI)
# [15] = before RYGB, GIP […], GLP-1 1 pmol/kg/min, ~15 mM glucose
compound,measurement,setting,value
3-hydroxybutyrate [3-OHB],blood D-3-OHB concentration during infusion,"[1]; CTR, from 0.2±0.03",1.0 ± 0.1 mmol/L
same,circulating FFA concentration after infusion,"[1]; CTR, from 0.48±0.09",0.21 ± 0.04 mmol/L
same,blood D-3-OHB concentration during infusion,"[1]; T1DM, from 0.2±0.06",1.2 ± 0.12 mmol/L
same,circulating FFA concentration after infusion,"[1]; T1DM, from 0.68±0.12",0.15 ± 0.03 mmol/L
"O=C1CCc2ccc(OCCCCN3CCN(c4cccc(Cl)c4Cl)CC3)cc2N1 [ARI, aripiprazole]",reduction of basal and insulin-stimulated glucose uptake,[2],≤ 70%
same,reduction of preadipocyte differentiation rate,"[2]; supra-therapeutic concentrations, 14 days",≤ 80%
"OC[C@H]1O[C@@H](c2ccc(F)c(Cc3cc4ccccc4s3)c2)[C@H](O)[C@@H](O)[C@@H]1O [Ipr, ipragliflozin]",change in visceral fat area,[3],-17.8%
"CCC(CCC(C)O)COC(=O)c1ccccc1C(=O)O (centres unmarked) [MEHHP, mono(2-ethyl-5-hydroxyhexyl) phthalate]",OR for NAFLD per unit increase of urinary concentration,[4],1.01
"CCC(CCC(C)=O)COC(=O)c1ccccc1C(=O)O (centres unmarked) [MEOHP, mono(2-ethyl-5-oxohexyl) phthalate]",OR for NAFLD per unit increase of urinary concentration,[4],1.01
"Cc1cc2c(s1)Nc1ccccc1N=C2N1CCN(C)CC1 [OLA, olanzapine]",adipogenesis or lipid and glucose metabolism,[2]; 0.2 and 2 μM during differentiation,did not affect
same,increase in LEP expression,[2]; present during differentiation,~ 2 fold
Cc1cnc(C(=O)O)c[n+]1[O-] [acipimox],reduction of FFAs,"patients with T2D; acute, at all visits",~ 35%
same,change in LVEF with acipimox,patients with T2D; during empagliflozin treatment,-6±2%
same,change in LVEF with acipimox,patients with T2D; during insulin treatment,-5.4±1%
CNC[C@H](O)c1ccc(O)c(O)c1 [adrenaline],change in K+-stimulated exocytosis,human delta cells,+56%
same,change in K+-stimulated exocytosis vs diazoxide only,human delta cells,-59%
N=C(N)NCCC[C@H](N)C(=O)O [arginine],Ins2 gene activity state,[5],inducing transitions from Ins2^GFP(low) states to Ins2^GFP(high) states
CCOc1ccc(Cc2cc([C@@H]3O[C@H](CO)[C@@H](O)[C@H](O)[C@H]3O)ccc2Cl)cc1 [dapagliflozin],EGP after drug,T2DM and NGT subjects; NGT,2.1±0.16
same,increase in renal glucose production (RGP),T2DM and NGT subjects; NGT,0.032 mg/kg.min
same,EGP after drug,T2DM and NGT subjects; T2DM,2.43±0.15
same,increase in renal glucose production (RGP),T2DM and NGT subjects; T2DM,0.065 mg/kg.min
same,increase in total body EGP,T2DM and NGT subjects; in vivo,0.45 mg/kg.min
same,urinary glucose excretion,[6]; 10mg/day,36 gram/24-hour
same,24-hour RER,"[6]; 10mg/day, whole-room indirect calorimetry",0.814 ± 0.006
same,coupled mitochondrial respiration on lipid-derived substrates (O2-flux),[6]; ex vivo skeletal muscle,68.2 ± 3.2 pmol/mg/s
same,PCr recovery rate,[7]; [14],23.1 (20.7-25.5) s
same,acetylcarnitine levels in muscle,[7]; [14],114.56 (91.16-137.95) pmoles*mg tissue^-1
same,lipid droplet size,[7]; [14],0.28 (0.20-0.36) μm^2
same,mitochondrial network integrity,[7]; [14],1.73 (1.33-2.12)
same,mitochondrial-LD interaction,[7]; [14],12.51 (9.70-15.32) %
same,CPT1A gene expression increase,[7]; muscle biopsy,1.33 fold
same,CPT1B gene expression increase,[7]; muscle biopsy,1.13 fold
C=C[C@@]1(C)CC(=O)[C@]2(O)[C@@]3(C)[C@@H](O)CCC(C)(C)[C@@H]3[C@H](O)[C@H](OC(C)=O)[C@@]2(C)O1 [forskolin],change in K+-stimulated exocytosis vs diazoxide only,human delta cells,+68%
COc1ccc(Cl)cc1C(=O)NCCc1ccc(S(=O)(=O)NC(=O)NC2CCCCC2)cc1 [glibenclamide],incidence of severe hypoglycaemia,patients with T2DM,1.3 % per year
CCCCCCCCCCCCCCCC(=O)N[C@@H](CCC(=O)NCCCC[C@H](NC(=O)[C@H](C)NC(=O)[C@H](C)NC(=O)[C@H](CCC(N)=O)NC(=O)CNC(=O)[C@H](CCC(=O)O)NC(=O)[C@H](CC(C)C)NC(=O)[C@H](Cc1ccc(O)cc1)NC(=O)[C@H](CO)NC(=O)[C@H](CO)NC(=O)[C@@H](NC(=O)[C@H](CC(=O)O)NC(=O)[C@H](CO)NC(=O)[C@@H](NC(=O)[C@H](Cc1ccccc1)NC(=O)[C@@H](NC(=O)CNC(=O)[C@H](CCC(=O)O)NC(=O)[C@H](C)NC(=O)[C@@H](N)Cc1cnc[nH]1)[C@@H](C)O)[C@@H](C)O)C(C)C)C(=O)N[C@@H](CCC(=O)O)C(=O)N[C@@H](Cc1ccccc1)C(=O)N[C@H](C(=O)N[C@@H](C)C(=O)N[C@@H](Cc1c[nH]c2ccccc12)C(=O)N[C@@H](CC(C)C)C(=O)N[C@H](C(=O)N[C@@H](CCCNC(=N)N)C(=O)NCC(=O)N[C@@H](CCCNC(=N)N)C(=O)NCC(=O)O)C(C)C)[C@@H](C)CC)C(=O)O [liraglutide],PRR for gallbladder or biliary diseases,[8],5.001
"CC(C)c1nc(N(C)S(C)(=O)=O)nc(-c2ccc(F)cc2)c1/C=C/[C@@H](O)C[C@@H](O)CC(=O)O [monotherapy, rosuvastatin]",MRI-PDFF at study completion,"participants with NAFLD; baseline 18.1 (combination), 15.0 (monotherapy)",12.4%
same,CAP by transient elastography at completion,"participants with NAFLD; baseline 321 (combination), 323 (monotherapy)",311 dB/m
NC(=O)N1c2ccccc2CC(=O)c2ccccc21 [oxcarbazepine],cytokine- and ER stress-induced β-cell death,human β-cells,protected
CCc1ccc(CCOc2ccc(CC3SC(=O)NC3=O)cc2)nc1 (centres unmarked) [pioglitazone],achieved HbA1c,[9],59.5 mmol/mol
same,weight on therapy higher than other drugs,[9]; [95%CI],"2.6 [2.3, 2.9] kg"
CC[C@H](C)[C@H](NC(=O)[C@H](Cc1ccccc1)NC(=O)[C@H](CCC(=O)O)NC(=O)[C@H](CCCCNC(=O)COCCOCCNC(=O)COCCOCCNC(=O)CC[C@H](NC(=O)CCCCCCCCCCCCCCCCC(=O)O)C(=O)O)NC(=O)[C@H](C)NC(=O)[C@H](C)NC(=O)[C@H](CCC(N)=O)NC(=O)CNC(=O)[C@H](CCC(=O)O)NC(=O)[C@H](CC(C)C)NC(=O)[C@H](Cc1ccc(O)cc1)NC(=O)[C@H](CO)NC(=O)[C@H](CO)NC(=O)[C@@H](NC(=O)[C@H](CC(=O)O)NC(=O)[C@H](CO)NC(=O)[C@@H](NC(=O)[C@H](Cc1ccccc1)NC(=O)[C@@H](NC(=O)CNC(=O)[C@H](CCC(=O)O)NC(=O)C(C)(C)NC(=O)[C@@H](N)Cc1cnc[nH]1)[C@@H](C)O)[C@@H](C)O)C(C)C)C(=O)N[C@@H](C)C(=O)N[C@@H](Cc1c[nH]c2ccccc12)C(=O)N[C@@H](CC(C)C)C(=O)N[C@H](C(=O)N[C@@H](CCCNC(=N)N)C(=O)NCC(=O)N[C@@H](CCCNC(=N)N)C(=O)NCC(=O)O)C(C)C [semaglutide],PRR for gallbladder or biliary diseases,[8],6.267
N[C@@H](CC(=O)N1CCn2c(nnc2C(F)(F)F)C1)Cc1cc(F)c(F)cc1F [sitagliptin],achieved HbA1c,[9],59.9 mmol/mol
same,diabetes-induced down-regulation of presynaptic proteins,"db/db mice retinas; eye drops 5 μL/eye, 10 mg/mL, twice per day, 2 weeks",inhibits this diabetes-induced down-regulation
same,blood glucose levels,db/db mice retinas; topical,without any effect
CCCC(=O)O [sodium butyrate],Ins2 gene activity state,[5],inducing transitions from Ins2^GFP(low) states to Ins2^GFP(high) states
Bone morphogenetic protein-7 [BMP7],acceleration of wound closure,"[10]; 0.5 μg per wound/day topical, vs vehicle",20%
same,number of lymphocytes in diabetic wounds,"[10]; mouse, in vivo",did not change
same,collagen deposition higher,[10]; vs vehicle-treated wounds,35%
same,increase in area of granulation tissue,[10]; vs vehicle-treated wounds,50%
same,reduction in number of macrophages,[10]; vs vehicle-treated wounds,30%
GABA,change in K+-stimulated exocytosis vs diazoxide only,human delta cells,+66%
Irisin,final body weight,"C57BL/6J mice; 0.5 μg/g i.p., 4 weeks, HFD 49.67 ± 1.48",44.87 ± 1.42 g
same,fat mass,C57BL/6J mice; HFD 14.56 ± 0.43,11.75 ± 0.78 g
same,fat/weight,C57BL/6J mice; HFD 29.37 ± 0.75,26.08 ± 1.09%
same,change in body weight vs HFD/STZ,"HFD/STZ C57Bl/6 mice; 0.5 μg/g, 14 days",-13%
same,change in glycemia vs HFD/STZ,"HFD/STZ C57Bl/6 mice; 0.5 μg/g, 14 days, n=4",-31%
same,change in GSIS AUC vs HFD/STZ,"HFD/STZ C57Bl/6 mice; mouse, in vivo",+23%
same,change in alpha-cell area vs HFD/STZ,"HFD/STZ C57Bl/6 mice; mouse, in vivo",-49%
same,change in beta-cell area vs HFD/STZ,"HFD/STZ C57Bl/6 mice; mouse, in vivo",+34%
same,change in insulin content vs HFD/STZ,"HFD/STZ C57Bl/6 mice; mouse, in vivo",+36%
same,change in islets volume vs HFD/STZ,"HFD/STZ C57Bl/6 mice; mouse, in vivo",+61%
same,increase in beta-cell proliferation rate,HFD/STZ C57Bl/6 mice; vs SD and HFD/STZ,9 fold
PF-4708671 [S6Ki],glucose-stimulated increase in OCR above baseline,[11],203.94±39.24%
same,oligomycin-induced decrease in OCR,[11],240.32±9.71%
dehydroaripiprazole [DARI],reduction of basal and insulin-stimulated glucose uptake,[2],≤ 70%
dulaglutide,BMI change,[12]; 26 weeks,No effect
same,incidence of diarrhoea,[12]; pooled doses,18.4%
same,incidence of nausea,[12]; pooled doses,14.6%
same,incidence of vomiting,[12]; pooled doses,15.5%
same,patients requiring rescue therapy,"[12]; pooled doses 0.75 and 1.5 mg, 26 weeks",2.9%
glucagon-like peptide-1 [GLP-1],Ins2 gene activity state,[5],inducing transitions from Ins2^GFP(low) states to Ins2^GFP(high) states
same,augmentation of second phase insulin secretion vs saline-clamp,[13]; 3 months after RYGB,+233±32%
same,augmentation of second phase insulin secretion vs saline-clamp,[13]; [15],+399±84%
glucose-dependent insulinotropic peptide [GIP],augmentation of second phase insulin secretion vs saline-clamp,[13]; 3 months after RYGB,+90±14%
same,augmentation of second phase insulin secretion vs saline-clamp,[13]; [15],+96±16%
insulin-like growth factor binding protein 7 [IGFBP7],insulin secretion normalised to total insulin,"EndoC-βH1 cells; 72 h, CTRL 5.2, n=4",4.0 %/h
same,C-peptide secretion at 20 mM glucose,"EndoC-βH1 cells; acute, CTRL 111, n=5",90 ng/mg prot/h
